Data published in PubChem BioAssay (NCI).
“And” between values parts separate entries of the source, which are not always exact repeats. Equal entries are not always repeated.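 In this assay, cells in 96-well plates receive the compound at five concentrations for 48 hours. Endpoints are linearly interpolated between the surrounding concentrations. GI50 marks 50% less growth. Definition used: TGI = concentration required for complete inhibition of growth.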 Where a SMILES comes first, the peptide text is derived from it. [ ]: non-standard residue; d: D form. The star is where a group is joined. Phe(4-NO2) = N[CH](Cc1ccc([N+](=O)[O-])cc1)C(=O)O; Boc = CC(C)(C)OC(=O)*

Tests used:
Assay in all cases: NCI-60 cell line screen, 48 h; in the data active means GI50 below about 0.43 µM; inactive means the rest
A549 NSCLC = test system: A549 NSCLC
HL-60(TB) leukemia = test system: HL-60(TB) leukemia
HOP-62 NSCLC = test system: HOP-62 NSCLC
HT29 colon = test system: HT29 colon
MDA-MB-231 breast = test system: MDA-MB-231 breast
MOLT-4 leukemia = test system: MOLT-4 leukemia
NCI-H23 lung = test system: NCI-H23 lung
SK-MEL-2 melanoma = test system: SK-MEL-2 melanoma
SNB-75 CNS = test system: SNB-75 CNS
SNB-19 CNS = test system: SNB-19 CNS

O=C1C(N2CCN(CCOCCO)CC2)=C(Cl)C(=O)c2ncccc21
8.29 µM and 5.91 µM: TGI (HL-60(TB) leukemia)
46 µM: TGI (HT29 colon)
5.15 µM and 31.4 µM: TGI (MOLT-4 leukemia)
inactive: GI50 (A549 NSCLC) > 100 µM | GI50 (HL-60(TB) leukemia) 2.24 µM | GI50 (HOP-62 NSCLC) > 100 µM | GI50 (MOLT-4 leukemia) 9.63 µM
34.2 µM: TGI (MDA-MB-231 breast)
42.5 µM: TGI (NCI-H23 lung)
43.9 µM: TGI (SK-MEL-2 melanoma)
> 100 µM: TGI (A549 NSCLC) | TGI (HOP-62 NSCLC) | TGI (SNB-75 CNS)

O=C1N2CCC[C@H]2CS1(=O)=O
75.1 µM: TGI (HT29 colon)
47.3 µM: TGI (A549 NSCLC)
22.5 µM: TGI (MOLT-4 leukemia)
34.4 µM: TGI (SK-MEL-2 melanoma)
32 µM: TGI (HOP-62 NSCLC)
34 µM: TGI (NCI-H23 lung)
29.6 µM: TGI (MDA-MB-231 breast)
39.3 µM: TGI (HL-60(TB) leukemia)
> 100 µM: TGI (SNB-19 CNS)
41.2 µM: TGI (SNB-75 CNS)

Cc1c(OCc2cccc3ccccc23)ccc2c(=O)cc(SCCN3CCOCC3)oc12
> 100 µM: TGI (A549 NSCLC) | TGI (HL-60(TB) leukemia) | TGI (HOP-62 NSCLC) | TGI (HT29 colon) | TGI (MDA-MB-231 breast) | TGI (MOLT-4 leukemia) | TGI (NCI-H23 lung) | TGI (SK-MEL-2 melanoma) | TGI (SNB-19 CNS) | TGI (SNB-75 CNS)

O=c1cc(-c2ccccc2)oc2c1ccc1[nH]c3ccccc3c(=O)c12
> 100 µM: TGI (A549 NSCLC) | TGI (HL-60(TB) leukemia) | TGI (HOP-62 NSCLC) | TGI (HT29 colon) | TGI (MDA-MB-231 breast) | TGI (MOLT-4 leukemia) | TGI (NCI-H23 lung) | TGI (SK-MEL-2 melanoma) | TGI (SNB-19 CNS) | TGI (SNB-75 CNS)

CC(OP(=O)(O)O)C(N)C(=O)O (stereo not drawn)
> 100 µM: TGI (A549 NSCLC) | TGI (HL-60(TB) leukemia) | TGI (HOP-62 NSCLC) | TGI (HT29 colon) | TGI (MDA-MB-231 breast) | TGI (MOLT-4 leukemia) | TGI (NCI-H23 lung) | TGI (SK-MEL-2 melanoma) | TGI (SNB-19 CNS) | TGI (SNB-75 CNS)

O=C1c2ccccc2C2(c3ccc(F)cc3)NCCN12 (stereo not drawn)
> 100 µM: TGI (A549 NSCLC) | TGI (HL-60(TB) leukemia) | TGI (HOP-62 NSCLC) | TGI (HT29 colon) | TGI (MDA-MB-231 breast) | TGI (MOLT-4 leukemia) | TGI (NCI-H23 lung) | TGI (SK-MEL-2 melanoma) | TGI (SNB-19 CNS) | TGI (SNB-75 CNS)

Cc1cc(C)c2c(c1)C/C(=C\c1cccc(C)c1C(=O)O)C2=O
> 100 µM: TGI (A549 NSCLC) | TGI (HL-60(TB) leukemia) | TGI (HOP-62 NSCLC) | TGI (HT29 colon) | TGI (MDA-MB-231 breast) | TGI (MOLT-4 leukemia) | TGI (NCI-H23 lung) | TGI (SK-MEL-2 melanoma) | TGI (SNB-19 CNS) | TGI (SNB-75 CNS)

Cc1cc(C)nc(NS(=O)(=O)c2ccc(NNc3c4ccccc4nc4c(C(=O)Nc5ccc(S(=O)(=O)Nc6cc(C)on6)cc5)cccc34)cc2)n1
82.2 µM: TGI (MOLT-4 leukemia)
49.1 µM: TGI (HT29 colon)
94.4 µM: TGI (MDA-MB-231 breast)
80.6 µM: TGI (HL-60(TB) leukemia)
62.5 µM: TGI (SK-MEL-2 melanoma)
86 µM: TGI (SNB-75 CNS)
> 100 µM: TGI (A549 NSCLC) | TGI (HOP-62 NSCLC) | TGI (NCI-H23 lung) | TGI (SNB-19 CNS)

O=C(Nc1ccc(-n2cc(-c3ccncc3)c(-c3ccc(O)c(Cl)c3)n2)cc1)c1ccc(Cl)c(C(F)(F)F)c1
1.56 µM: TGI (MDA-MB-231 breast)
2.72 µM: TGI (HT29 colon)
inactive: GI50 (A549 NSCLC) 2.09 µM | GI50 (HL-60(TB) leukemia) 1.83 µM | GI50 (HOP-62 NSCLC) 2.31 µM | GI50 (HT29 colon) 1.2 µM | GI50 (MDA-MB-231 breast) 0.735 µM | GI50 (MOLT-4 leukemia) 1.69 µM | GI50 (NCI-H23 lung) 2.55 µM | GI50 (SK-MEL-2 melanoma) 1.22 µM | GI50 (SNB-19 CNS) 2.52 µM | GI50 (SNB-75 CNS) 2.23 µM
12.5 µM: TGI (HL-60(TB) leukemia)
> 50 µM: TGI (A549 NSCLC) | TGI (HOP-62 NSCLC) | TGI (NCI-H23 lung) | TGI (SNB-19 CNS) | TGI (SNB-75 CNS)
34.2 µM: TGI (MOLT-4 leukemia)
3.32 µM: TGI (SK-MEL-2 melanoma)

CCOC(=O)CCC(NC(=O)C(Cc1ccc([N+](=O)[O-])cc1)NC(=O)OC(C)(C)C)C(=O)NC(CCC(=O)OCC)C(=O)OCC (stereo not drawn) (Boc-[Phe(4-NO2)]-Glu(OEt)-Glu(OEt)-OEt; configuration not given here)
> 100 µM: TGI (A549 NSCLC) | TGI (MDA-MB-231 breast) | TGI (SNB-19 CNS)
6.62 µM: TGI (MOLT-4 leukemia)
31.8 µM: TGI (NCI-H23 lung)
67.4 µM: TGI (HOP-62 NSCLC)
25.9 µM: TGI (SK-MEL-2 melanoma)
44 µM: TGI (HL-60(TB) leukemia)
31.5 µM: TGI (HT29 colon) | TGI (SNB-75 CNS)

CC(C)(C)c1cc(OCc2nnc3sc(Cc4ccccc4)nn23)c(Cl)cc1OCc1nnc2sc(Cc3ccccc3)nn12
58.3 µM: TGI (HL-60(TB) leukemia)
57.8 µM: TGI (HT29 colon)
39 µM: TGI (MDA-MB-231 breast)
> 100 µM: TGI (A549 NSCLC) | TGI (HOP-62 NSCLC) | TGI (MOLT-4 leukemia) | TGI (NCI-H23 lung) | TGI (SK-MEL-2 melanoma) | TGI (SNB-19 CNS)
84.8 µM: TGI (SNB-75 CNS)

O=C1CCCCC/C1=C\c1cccc(F)c1
> 100 µM: TGI (A549 NSCLC) | TGI (HL-60(TB) leukemia) | TGI (HOP-62 NSCLC) | TGI (HT29 colon) | TGI (MDA-MB-231 breast) | TGI (MOLT-4 leukemia) | TGI (SK-MEL-2 melanoma) | TGI (SNB-19 CNS) | TGI (SNB-75 CNS)

CCOc1ccc2nc3nc(=O)[nH]c(C)c3c(NC(C)(CO)CO)c2c1
> 100 µM: TGI (A549 NSCLC) | TGI (HL-60(TB) leukemia) | TGI (HOP-62 NSCLC) | TGI (HT29 colon) | TGI (MDA-MB-231 breast) | TGI (MOLT-4 leukemia) | TGI (NCI-H23 lung) | TGI (SK-MEL-2 melanoma) | TGI (SNB-19 CNS) | TGI (SNB-75 CNS)

CC(=O)OCC1OC(SC2=NC(=O)CS2)C(OC(C)=O)C(OC(C)=O)C1OC(C)=O (stereo not drawn)
91.2 µM and 70.7 µM: TGI (HL-60(TB) leukemia)
> 100 µM: TGI (A549 NSCLC) | TGI (HOP-62 NSCLC) | TGI (HT29 colon) | TGI (MDA-MB-231 breast) | TGI (MOLT-4 leukemia) | TGI (NCI-H23 lung) | TGI (SK-MEL-2 melanoma) | TGI (SNB-19 CNS) | TGI (SNB-75 CNS)
inactive: GI50 (SK-MEL-2 melanoma) > 100 µM and 27.1 µM

O=C(O)Cn1c2c(c3c1-c1ccccc1C3=O)C(=O)CCC2
inactive: GI50 (A549 NSCLC) > 100 µM | GI50 (HL-60(TB) leukemia) > 100 µM | GI50 (HOP-62 NSCLC) > 100 µM | GI50 (HT29 colon) > 100 µM | GI50 (MDA-MB-231 breast) > 100 µM | GI50 (MOLT-4 leukemia) > 100 µM | GI50 (NCI-H23 lung) > 100 µM | GI50 (SK-MEL-2 melanoma) > 100 µM | GI50 (SNB-19 CNS) > 100 µM | GI50 (SNB-75 CNS) > 100 µM
> 100 µM: TGI (A549 NSCLC) | TGI (HL-60(TB) leukemia) | TGI (HOP-62 NSCLC) | TGI (HT29 colon) | TGI (MDA-MB-231 breast) | TGI (MOLT-4 leukemia) | TGI (NCI-H23 lung) | TGI (SK-MEL-2 melanoma) | TGI (SNB-19 CNS) | TGI (SNB-75 CNS)

CC(=O)/C=C/c1ccccc1
> 100 µM: TGI (A549 NSCLC) | TGI (HL-60(TB) leukemia) | TGI (HT29 colon) | TGI (MDA-MB-231 breast) | TGI (MOLT-4 leukemia) | TGI (SK-MEL-2 melanoma) | TGI (SNB-19 CNS) | TGI (SNB-75 CNS)
85.5 µM: TGI (NCI-H23 lung)
93.9 µM: TGI (HOP-62 NSCLC)

CCOC(=O)CCc1cn2cc(Br)nc(OC)c2n1
> 100 µM: TGI (A549 NSCLC) | TGI (HL-60(TB) leukemia) | TGI (HOP-62 NSCLC) | TGI (HT29 colon) | TGI (MDA-MB-231 breast) | TGI (MOLT-4 leukemia) | TGI (NCI-H23 lung) | TGI (SK-MEL-2 melanoma) | TGI (SNB-19 CNS) | TGI (SNB-75 CNS)
